Reference: patent publication US8614327B2 (Vertex Pharmaceuticals Incorporated, priority 2004, dated 2013)

Target: T1, ΔF508-CFTR (Homo sapiens, UniProt P13569, DEL508-508)
T1 construct: expressed in transfected cells
Assay: Membrane potential optical (FRET/VIPR) assay, identification of potentiator compounds
Format: cell-based
Conditions: Table 3, assay not given; for % Activity: relative efficacy
Method in brief: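 NIH3T3 mouse fibroblasts stably expressing ΔF508-CFTR, temperature-corrected 24 h at 27° C., read on VIPR by FRET between CC2-DMPE and DiSBAC2(3). Potentiators identified in a double-addition format, first adding chloride-free (gluconate) medium with or without compound.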

T1 sequence (P13569 with tags, fused parts or gaps DEL508-508): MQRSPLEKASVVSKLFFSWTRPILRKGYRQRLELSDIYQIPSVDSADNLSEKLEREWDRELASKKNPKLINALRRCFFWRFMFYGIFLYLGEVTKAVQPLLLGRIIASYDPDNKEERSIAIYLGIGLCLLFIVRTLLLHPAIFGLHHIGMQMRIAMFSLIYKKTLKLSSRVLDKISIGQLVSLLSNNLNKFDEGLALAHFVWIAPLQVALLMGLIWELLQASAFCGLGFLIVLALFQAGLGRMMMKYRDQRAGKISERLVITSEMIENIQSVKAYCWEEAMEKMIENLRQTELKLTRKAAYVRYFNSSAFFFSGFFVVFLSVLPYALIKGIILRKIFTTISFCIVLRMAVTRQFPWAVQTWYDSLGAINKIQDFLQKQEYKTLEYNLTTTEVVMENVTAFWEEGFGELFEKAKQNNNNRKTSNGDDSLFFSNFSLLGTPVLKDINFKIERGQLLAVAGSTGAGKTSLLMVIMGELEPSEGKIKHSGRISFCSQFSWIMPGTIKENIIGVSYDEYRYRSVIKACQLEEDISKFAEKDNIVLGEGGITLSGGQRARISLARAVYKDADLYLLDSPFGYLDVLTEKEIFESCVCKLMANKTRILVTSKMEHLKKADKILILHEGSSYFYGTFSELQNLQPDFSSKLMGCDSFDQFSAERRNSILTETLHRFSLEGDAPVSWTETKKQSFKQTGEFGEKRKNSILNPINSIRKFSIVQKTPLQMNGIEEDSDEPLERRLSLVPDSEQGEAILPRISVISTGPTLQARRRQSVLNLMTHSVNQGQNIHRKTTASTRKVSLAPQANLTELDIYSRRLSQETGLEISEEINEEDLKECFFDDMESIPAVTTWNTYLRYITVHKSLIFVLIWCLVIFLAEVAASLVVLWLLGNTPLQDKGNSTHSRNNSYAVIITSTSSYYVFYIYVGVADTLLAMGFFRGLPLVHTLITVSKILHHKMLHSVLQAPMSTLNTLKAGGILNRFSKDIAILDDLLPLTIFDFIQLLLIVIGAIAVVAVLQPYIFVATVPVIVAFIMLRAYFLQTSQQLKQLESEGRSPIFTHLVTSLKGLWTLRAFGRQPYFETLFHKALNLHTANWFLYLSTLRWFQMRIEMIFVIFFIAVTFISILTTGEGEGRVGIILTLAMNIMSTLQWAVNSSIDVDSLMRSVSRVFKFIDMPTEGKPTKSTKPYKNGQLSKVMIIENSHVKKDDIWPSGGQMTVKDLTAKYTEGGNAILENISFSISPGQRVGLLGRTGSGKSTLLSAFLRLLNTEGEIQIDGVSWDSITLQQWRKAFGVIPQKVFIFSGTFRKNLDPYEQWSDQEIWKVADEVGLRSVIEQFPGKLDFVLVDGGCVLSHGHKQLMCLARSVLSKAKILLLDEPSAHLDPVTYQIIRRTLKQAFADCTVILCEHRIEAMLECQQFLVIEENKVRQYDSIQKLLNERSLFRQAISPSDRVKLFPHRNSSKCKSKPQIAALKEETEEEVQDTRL

| SMILES | EC50 [µM] | % Activity |
| --- | --- | --- |
| Cn1c(=O)oc2ccc(NC(=O)c3c[nH]c4ccccc4c3=O)cc21 [Compound 474, N-(3-methyl-2-oxo-3H-benzooxazol-5-yl)-4-oxo-1H-quinoline-3-carboxamide] | 25 to 60 | + (<25%) |
| CC(C)(C)c1cc(C#N)c(NC(=O)c2c[nH]c3ccccc3c2=O)cc1O [Compound 476, N-(4-tert-Butyl-2-cyano-5-hydroxyphenyl)-1,4-dihydro-4-oxoquinoline-3-carboxamide] | < 10 | ++ (between 25% to 100%) |
| O=C(Nc1ccc(F)cn1)c1c[nH]c2ccccc2c1=O [Compound 477, N-(5-fluoro-2-pyridyl)-4-oxo-1H-quinoline-3-carboxamide] | 25 to 60 | + (<25%) |
| CC(C)(C)c1c[nH]c2cc(NC(=O)c3c[nH]c4ccccc4c3=O)ccc12 [Compound 478, 4-oxo-N-(3-tert-butyl-1H-indol-6-yl)-1H-quinoline-3-carboxamide] | < 10 | ++ (between 25% to 100%) |
| COc1cccc2[nH]cc(C(=O)Nc3ccc4cc[nH]c4c3)c(=O)c12 [Compound 479, N-(1H-indol-6-yl)-5-methoxy-4-oxo-1H-quinoline-3-carboxamide] | < 10 | ++ (between 25% to 100%) |
| CCn1cc(C(=O)Nc2ccccc2)c(=O)c2cc(OC)ccc21 [Compound 480, 1-ethyl-6-methoxy-4-oxo-N-phenyl-1H-quinoline-3-carboxamide] | 25 to 60 | + (<25%) |
| O=C(Nc1ccc2ccccc2c1)c1c[nH]c2ccccc2c1=O [Compound 481, N-(2-naphthyl)-4-oxo-1H-quinoline-3-carboxamide] | < 10 | ++ (between 25% to 100%) |
| CCOC(=O)NC1CCCc2ccc(NC(=O)c3c[nH]c4ccccc4c3=O)cc21 (stereo not drawn) [Compound 482, [7-[(4-Oxo-1H-quinolin-3-yl)carbonylamino]tetralin-1-yl]aminoformic acid ethyl ester] | 10 to 25 | ++ (between 25% to 100%) |
| CC1(c2cc(F)c(NC(=O)c3cnc4ccccc4c3O)cc2O)CCCCCC1 [Compound 483, N-[2-fluoro-5-hydroxy-4-(1-methylcycloheptyl)-phenyl]-4-hydroxy-quinoline-3-carboxamide] | < 10 | ++ (between 25% to 100%) |
| CNc1cc(NC(=O)c2c[nH]c3ccccc3c2=O)ccc1C(C)(C)C [Compound 484, N-(3-methylamino-4-tert-butyl-phenyl)-4-oxo-1H-quinoline-3-carboxamide] | < 10 | ++ (between 25% to 100%) |
| CN(C)c1cc(NC(=O)c2c[nH]c3ccccc3c2=O)ccc1C(C)(C)C [Compound 485, N-(3-Dimethylamino-4-tert-butyl-phenyl)-4-oxo-1H-quinoline-3-carboxamide] |  | ++ (between 25% to 100%) |
| CC(C)(C)c1cc(F)c(NC(=O)c2c[nH]c3cc(F)c(F)cc3c2=O)cc1O [Compound 486, 6,7-difluoro-N-(2-fluoro-5-hydroxy-4-tert-butyl-phenyl)-4-oxo-1H-quinoline-3-carboxamide] | < 10 | ++ (between 25% to 100%) |
| CC(C)(C)c1cc(C(F)(F)F)c(NC(=O)c2c[nH]c3cccc(O)c3c2=O)cc1O [Compound 487, 5-hydroxy-N-[5-hydroxy-4-tert-butyl-2-(trifluoromethyl)phenyl]-4-oxo-1H-quinoline-3-carboxamide] | < 10 | ++ (between 25% to 100%) |
| O=C(Nc1cc(N2CCCCC2)cc(C(F)(F)F)c1)c1c[nH]c2ccccc2c1=O [Compound 488, 4-oxo-N-[3-(1-piperidyl)-5-(trifluoromethyl)phenyl]-1H-quinoline-3-carboxamide] | < 10 | ++ (between 25% to 100%) |
| Cc1ccc2[nH]cc(C(=O)Nc3ccc(N4CCC(C)(C)C4)cc3C(F)(F)F)c(=O)c2c1 [Compound 489, N-[4-(3,3-dimethylpyrrolidin-1-yl)-2-(trifluoromethyl)phenyl]-6-methyl-4-oxo-1H-quinoline-3-carboxamide] | < 10 | ++ (between 25% to 100%) |
| CC(C)(C)c1ccc(NC(=O)c2c[nH]c3ccc(F)cc3c2=O)cc1O [Compound 490, 6-fluoro-N-(3-hydroxy-4-tert-butyl-phenyl)-4-oxo-1H-quinoline-3-carboxamide] | < 10 | ++ (between 25% to 100%) |
| CC(C)(C)c1ccc(NC(=O)c2c[nH]c3cccc(O)c3c2=O)cc1F [Compound 491, N-(3-fluoro-4-tert-butyl-phenyl)-5-hydroxy-4-oxo-1H-quinoline-3-carboxamide] | < 10 | ++ (between 25% to 100%) |

| SMILES | EC50 [µM] | % Activity |
| --- | --- | --- |
| COC(=O)C1CCCCN1c1ccc(NC(=O)c2c[nH]c3ccccc3c2=O)c(C(F)(F)F)c1 (stereo not drawn) [Compound 492, methyl 1-[4-[(4-oxo-1H-quinolin-3-yl)carbonylamino]-3-(trifluoromethyl)phenyl]piperidine-2-carboxylate] | < 10 | +++ (>100%) |
| CC(CO)(CO)c1ccc(NC(=O)c2c[nH]c3cccc(O)c3c2=O)cc1 [Compound 493, 5-hydroxy-N-[4-[2-hydroxy-1-(hydroxymethyl)-1-methyl-ethyl]phenyl]-4-oxo-1H-quinoline-3-carboxamide] | < 10 | ++ (between 25% to 100%) |
| O=C(Nc1cc2[nH]ccc2cc1C(F)(F)F)c1c[nH]c2cccc(O)c2c1=O [Compound 494, 5-hydroxy-4-oxo-N-[5-(trifluoromethyl)-1H-indol-6-yl]-1H-quinoline-3-carboxamide] | < 10 | ++ (between 25% to 100%) |
| O=C(Nc1ccc2cc(C(F)(F)F)[nH]c2c1)c1c[nH]c2ccc(F)cc2c1=O [Compound 495, 6-fluoro-4-oxo-N-[2-(trifluoromethyl)-1H-indol-6-yl]-1H-quinoline-3-carboxamide] | < 10 | ++ (between 25% to 100%) |
| COc1ccc2[nH]cc(C(=O)Nc3cc(O)c(C(C)(C)C)cc3C(C)(C)C)c(=O)c2c1 [Compound 496, N-(5-hydroxy-2,4-ditert-butyl-phenyl)-6-methoxy-4-oxo-1H-quinoline-3-carboxamide] | < 10 | ++ (between 25% to 100%) |
| CC(C)c1cc(C(F)(F)F)c(NC(=O)c2c[nH]c3ccccc3c2=O)cc1O [Compound 497, N-[5-hydroxy-4-isopropyl-2-(trifluoromethyl)phenyl]-4-oxo-1H-quinoline-3-carboxamide] | < 10 | +++ (>100%) |
| Cc1cccc2[nH]cc(C(=O)Nc3cc(O)c(C4(C)CCCCC4)cc3F)c(=O)c12 [Compound 498, N-[2-fluoro-5-hydroxy-4-(1-methylcyclohexyl)-phenyl]-5-methyl-4-oxo-1H-quinoline-3-carboxamide] | < 10 | ++ (between 25% to 100%) |
| Cc1ccc2c(=O)c(C(=O)Nc3cc(O)c(C4(C)CCCCC4)cc3F)c[nH]c2c1 [Compound 499, N-[2-fluoro-5-hydroxy-4-(1-methylcyclohexyl)-phenyl]-7-methyl-4-oxo-1H-quinoline-3-carboxamide] | < 10 | ++ (between 25% to 100%) |
| CC(C)(C)c1cc2cc[nH]c2cc1NC(=O)c1c[nH]c2cccc(O)c2c1=O [Compound 500, 5-hydroxy-4-oxo-N-(5-tert-butyl-1H-indol-6-yl)-1H-quinoline-3-carboxamide] | < 10 | ++ (between 25% to 100%) |
| O=C(Nc1cc(O)c(C(F)(F)F)cc1F)c1c[nH]c2ccccc2c1=O [Compound 501, N-[2-fluoro-5-hydroxy-4-(trifluoromethyl)phenyl]-4-oxo-1H-quinoline-3-carboxamide] | < 10 | ++ (between 25% to 100%) |
| COc1cc(NC(=O)c2c[nH]c3cccc(O)c3c2=O)cc(C(F)(F)F)c1 [Compound 502, 5-hydroxy-N-[3-methoxy-5-(trifluoromethyl)phenyl]-4-oxo-1H-quinoline-3-carboxamide] | < 10 | ++ (between 25% to 100%) |
| Cc1ccc2[nH]cc(C(=O)Nc3ccc(N4CCCC4C)cc3C(F)(F)F)c(=O)c2c1 (stereo not drawn) [Compound 503, 6-methyl-N-[4-(2-methylpyrrolidin-1-yl)-2-(trifluoromethyl)phenyl]-4-oxo-1H-quinoline-3-carboxamide] | < 10 | ++ (between 25% to 100%) |
| COc1ccc2[nH]cc(C(=O)Nc3ccc(N4CCC(C)(C)C4)cc3C(F)(F)F)c(=O)c2c1 [Compound 504, N-[4-(3,3-dimethylpyrrolidin-1-yl)-2-(trifluoromethyl)phenyl]-6-methoxy-4-oxo-1H-quinoline-3-carboxamide] | < 10 | ++ (between 25% to 100%) |
| CC(C)(C)c1cc(C(C)(C)C)c(NC(=O)c2c[nH]c3c(C#N)cccc3c2=O)cc1O [Compound 505, 8-cyano-N-(5-hydroxy-2,4-ditert-butyl-phenyl)-4-oxo-1H-quinoline-3-carboxamide] | < 10 | + (<25%) |
| O=C(Nc1ccc(C(F)(F)F)c(O)c1)c1c[nH]c2ccccc2c1=O [Compound 506, N-[3-hydroxy-4-(trifluoromethyl)phenyl]-4-oxo-1H-quinoline-3-carboxamide] | < 10 | ++ (between 25% to 100%) |
| CCc1cc(C(C)(C)C)c(O)cc1NC(=O)c1c[nH]c2cccc(O)c2c1=O [Compound 507, N-(2-ethyl-5-hydroxy-4-tert-butyl-phenyl)-5-hydroxy-4-oxo-1H-quinoline-3-carboxamide] | < 10 | ++ (between 25% to 100%) |
| CC(C)(C)c1c[nH]c2cc(NC(=O)c3c[nH]c4ccccc4c3=O)c(C(F)(F)F)cc12 [Compound 508, 4-oxo-N-[3-tert-butyl-5-(trifluoromethyl)-1H-indol-6-yl]-1H-quinoline-3-carboxamide] |  | ++ (between 25% to 100%) |
